Assay results: patent US8278359B2, “Compositions containing amines and use thereof to treat acne or reduce the appearance of oil or pores on the skin” (Johnson & Johnson Consumer Companies, Inc., priority 2005, dated 2012)
Marks after values point to notes of the source that are not given here.

Experiments:
[1] = tested on: tyrosinase; test: Tyrosinase protein levels in B16 cells (Western blot, normalized to β-Actin); format: cell-based, murine; settings: pH 7.2, 48 hours, PBS treated control = 1
Method: THPED was also tested for its ability to induce tyrosinase protein levels in B16 cells. B16 cells were treated with THPED at different concentrations at pH 7.2 for 48 hours and cells were then lysed in 250 μl of PBS containing 1% Triton X-100. B16 cell lysates containing 3.7 μg of protein (for tyrosinase protein analysis) and 1.2 μg of protein (for β-Actin protein analysis) were electrophoresed on 4-20% Tris-Glycine SDS PAGE minigels (Invitrogen, Carlsbad, Calif.), transferred onto PVDF membrane (Bio Rad, Hercules, Calif.), and probed with antibodies for Tyrosinase (1:200 in PBS+0.2% Tween 20+5% BSA, obtained from Santa Cruz Biotechnology, Inc., Santa Cruz, Calif.) and β-Actin (1:2000 in PBS+0.2% Tween 20+5% BSA, obtained from Sigma, St. Louis, Mo.). Protein expression of tyrosinase and β-Actin were analyzed using ECL reagent and Hyperfilm ECL obtained from Amersham (Piscataway, N.J.). The film was developed using a Konica SRX-101A Processor (East Orange, N.J.).
Tyrosinase protein level in untreated B16 cells was normalized to 1.

[2] = tested on: IFN (interferon-gamma); test: PHA-stimulated peripheral blood lymphocyte cytokine release: IFN; format: cell-based; settings: Homo sapiens, 48 h, read-out: IFN % inh.
Text: (§1) The ability of various amines to affect the inflammatory responses was illustrated by its ability to reduce the production of cytokines by human lymphocytes stimulated with the T-cell receptor (TCR) activating agent phytohaemagglutinin (PHA) in the following assay.
(§2) Human leukocytes were collected from a healthy adult […] via leukopheresis, and adjusted to a density Of 1×10^6 cells/mL in serum free lymphocyte growth medium (ExVivo-15, Biowhittaker, Walkersville, Md.). PBLs were stimulated with 10 μg/mL PHA in the presence or absence of test samples following published methods (Hamamoto Y., et al. Exp Dermatol 2:231-235, 1993). The following compounds were evaluated N,N,N′,N′-Tetrakis(2-hydroxypropyl)ethylenediamine (THPED, available from BASF under the tradename “Quadrol” or “Neutrol”), N,N,N,N-Tetramethylethylenediamine (TEMED, available from Pfaltz & Bauer Chemicals (Waterbury, Conn.)), and Diethylenetriamine (available from Sigma-Aldrich) Following a 48 hour incubation at 37° C. with 5% CO2, the supernatant was removed and evaluated for cytokine content using commercially available multiplex cytokine detection kit.

[3] = tested on: facial skin pores; test: Clinical study: reduction of pore size on facial skin, parallel-polarized image analysis; format: in vivo, human; settings: composition containing 2.5% THPED, 45 minutes
Text: A composition containing 2.5% THPED was compared to a corresponding placebo composition for the reduction of pore size on facial skin. 31 subjects were enrolled in the study, with all of the subjects completing the protocol. Table XVII discloses the formulation of the two compositions.
About 0.45-0.52 g of each composition was applied on one side of the face for each subject and allowed to dry. Each composition was applied only once to the area for the duration of this study. At baseline and 45 minutes after composition application, parallel-polarized digital images were taken of the entire face to document changes observed in pore size. Pore Size Reduction was evaluated using computer analysis of Parallel-Polarized images of the face.

[4] = tested on: human facial skin biopsy punches rich in sebaceous glands; test: Sebum lipid accumulation in facial skin biopsy punches (C14-acetate, HPTLC); format: cell-based; settings: 25 um; two experiments, two donors
Text: The ability of THPED to selectively affect the content of squalene present in human sebum without affecting other components of sebum was illustrated by its ability to selectively reduce the content of squalene present in human skin using the following assay.
The Methods used are as described previously by Pappas et al. (J Invest Dermatol. 2002 January; 118(1):164-171). In summary, samples of facial skin (otherwise to be discarded) were obtained from female patients 45-65 years of age. The subjects were healthy females without a history of retinoid or laser treatment or chemotherapy. The specimens were obtained from facial lift surgery within 5 hours from the end of the surgery. Two mm biopsy punches were taken from tissues rich in sebaceous glands and cultured in serum free medium. […]
The lipid components extracted from the explanted glands were analyzed by chromatographic separation on 10×20 cm Whatman HPTLC Silica G plates that had been previously charged with chloroform, heated in a vacuum oven at 105° C. for 30 min and cooled to room temperature in a dessicator. […]

[5] = tested on: TNF (tissue necrosis factor-alpha); test: PHA-stimulated peripheral blood lymphocyte cytokine release: TNF; format: cell-based; settings: Homo sapiens, 48 h, read-out: TNF % inh.
Text: as §1, §2

[6] = tested on: IL-1A; test: UV-induced IL-1A release on reconstituted epidermis (EPI 200 HCF epidermal equivalents); format: cell-based, human; settings: 0.5% w/v topical
Method: The effect of diamines was evaluated for topical anti-inflammatory activity on human epidermal equivalents. Epidermal equivalents (EPI 200 HCF), multilayer and differentiated epidermis consisting of normal, human epidermal keratinocytes, were purchased from MatTek (Ashland, Mass.). Upon receipt, epidermal equivalents were incubated for 24 hours at 37° C. in maintenance medium without hydrocortisone. Equivalents were topically treated (2 mg/cm^2) with compounds in 70% ethanol/30% propylene glycol vehicle at the indicated concentration 2 hours before exposure to solar ultraviolet light (1000 W-Oriel solar simulator equipped with a 1-mm Schott WG 320 filter; UV dose applied: 70 kJ/m^2 as measured at 360 nm). Equivalents were incubated for 24 hours at 37° C. with maintenance medium then supernatants were analyzed for IL-1A cytokine release using commercially available kits (Upstate Biotechnology, Charlottesville, Va.).

SMILES: CC(O)CN(CCN(CC(C)O)CC(C)O)CC(C)O (stereo not shown) [THPED, N,N,N′,N′-Tetrakis(2-hydroxypropyl)ethylenediamine]
- Relative increase in tyrosinase protein ([1]; 0.01%): 3 fold
- Relative increase in tyrosinase protein ([1]; 0.025%): 25 fold
- Relative increase in tyrosinase protein ([1]; 0.05%): 36 fold
- inhibition at 10 µg/mL [2]: 18.1%
- inhibition at 100 µg/mL [2]: 37.9%
- % Of Pore Size Reduction over Placebo ([3]; single application, subject responders): 7.11%*
- greater pore reduction response than the placebo alone [3]: 19.4%
- Inhibition of Squalene accumulation, (Percent of Vehicle Treated) [4]: 44.0%
- Inhibition of Triglyceride accumulation, (Percent of Vehicle Treated) [4]: 2.65%
- inhibition at 10 µg/mL [5]: 13.3%
- inhibition at 100 µg/mL [5]: 46.1%
- Mean +/− Std Dev of IL-1A Release ([6]; 2 hours before UV (70 kJ/m^2), 24 hours after): 357.3 ± 92.1 ng/mL
- inhibition at 0.5 % strength ([6]; Homo sapiens, 2 hours before UV, vs UV, Vehicle, read-out: Percent Inhibition of Skin Inflammation): 0%
